# Assay results reported in patent US4217355A, “Amide therapeutic agents” (Pfizer Inc., priority 1978, dated 1980).
# Key:
# [1] = test system: murine thymus cells; experiment: lymphocyte stimulation assay (LSA), in vitro lymphocyte proliferation of murine thymus cells cultured in the presence of Concanavalin A; type: cell-based, male C57B1/6 mice; conditions: in vitro; Con A present; 48 hours at 37° C.; score at drug level with maximum activity
# Source text: On the other hand, the activity of the compounds of the present invention, as immunoregulator agents, is based on a study of their ability to stimulate, in vitro, the lymphocyte proliferation of murine thymus cells cultured in the presence of Concanavalin A (Con A) by employing the general evaluation procedure of V. J. Merluzzi et al., as described in the Journal of Clinical and Experimental Immunology, Vol. 22, p. 486 (1975).
# 486 (1975). The cells were derived from male C57B1/6 mice of from 6-8 weeks age, purchased from the Jackson Laboratories of Bar Harbor, Maine and the Con A was obtained from Sigma Chemicals of St. Louis, Missouri. Each cell culture (consisting of 0.10 ml. thymus cells stock solution, 0.05 ml. of Con A stock solution and 0.05 ml. of drug solution) was performed in quadruplicate and cellular proliferation was measured, after 48 hours of incubation at 37° C., by pulsing each culture with ^3 H-thymidine (0.01 ml. of specific activity 1.9 C/mM, obtained from Schwarz-Mann, Inc. of Orangeburg, N.Y.) and then determining the incorporation of ^3 H-thymidine into cellular desoxyribonucleic acid (DNA) by an assessment of radioactivity using a liquid scintillation counter.
# [2] = test system: inflammation in adrenalectomized animals; experiment: anti-inflammatory activity in adrenalectomized animals; type: in vivo, rats
# Source text: As previously indicated, the N-(2-thiazolyl)amide compounds of the present invention are all readily adapted to therapeutic use as anti-inflammatory agents and as immunoregulators, particularly in view of their ability to reduce the swelling and relieve the pain caused by arthritic and other inflammatory disorders that are normally associated with such basic ailments as rheumatoid arthritis and the like. […] A. Winter et al., Proc. Soc. Exp. Biol. Med., Vol. 111, p.
# [3] = test system: carrageenin-induced edema in the hind paw; experiment: carrageenin-induced rat food edema test (inhibition of edema formation in the hind paw); type: in vivo, male albino rats
# Method: A. Winter et al., Proc. Soc. Exp. Biol. Med., Vol. 111, p.
# A. Winter et al., as earlier reported in the Proceedings of the Society of Experimental Biology and Medicine, Vol. 111, p. 544 (1962). In this test, anti-inflammatory activity is determined as the percent inhibition of edema formation in the hind paw of male albino rats (weighing 150-190 g.) in response to a sub-plantar injection of carrageenin. The carrageenin is injected as a 1% aqueous suspension (0.05 ml.) one hour after oral administration of the drug, which is normally given in the form of an aqueous solution. Edema formation is then assessed three hours after the carrageenin injection by measuring the volume of the injected paw initially as well as at the three-hour mark. The increase in volume three hours after carrageenin injection constitutes the individual response.
# The following N-(2-thiazolyl)amides were tested for anti-inflammatory activity in rats, using the standard carrageen-ininduced rat food edema test, according to the procedure essentially described by C. A. Winter et al., as first reported in the Proceedings of the Society for Experimental Biology and Medicine, Vol. 111, p. 544 (1962). […]
smiles,measurement,setting,value
"O=C(CNCc1ccccc1)Nc1nccs1 [X=H, R1=H, R2=benzyl, N-(2-thiazolyl)-α-benzylaminoacetamide]",LSA Activity,[1],"+++ (those having an activity greater than levamisole (27,000±1,000 cpm) were scored as +++)"
same,anti-inflammatory activity in adrenalectomized animals,[2],retaining its extremely potent anti-inflammatory activity in adrenalectomized animals to a significantly high degree
same,% Inhibition of edema formation (swelling),"[3]; rat, oral, 1.0 mg./kg.",35%
same,% Inhibition of edema formation,"[3]; rat, oral, 33 mg./kg., three hours after carrageenin injection",52%
same,oral dose levels at which the non-steroidal therapeutic effect is exhibited,"[3]; rats, tested orally",0.33 to 33 mg/kg
